Test results reported in US20230312449A1, “CARBOXYLIC ACID COMPOUND, AND PREPARATION METHOD THEREFOR AND APPLICATION THEREOF” (BOTREE CYCLING SCI & TECH CO., LTD., priority 2020, published 2023).
Several values for one entry are separate records, joined by “and”; a condition that tells them apart may be missing. Identical values can stand only once.

Test: Solubility of extractant in extraction system, oil content by CH2Cl2 extraction and weighing (Ni/Mg chloride system)
Assay type: physicochemical
Details: 0.62 mol/L in Escaid 110; saponification 24%; nickel chloride solution 1.33 g/L Ni, 4 g/L Mg; 30 min; 25° C.
Procedure: Compound BC195 and diluent Escaid 110 were prepared into a 0.62 mol/L solution, and an aqueous phase was a magnesium-enriched nickel chloride solution containing 1.33 g/L Ni and 4 g/L Mg; 100 mL of the organic phase was added in a 250 mL separatory funnel, 10 mol/L sodium hydroxide aqueous solution was added for saponification to a saponification proportion of 24%, and after the saponification, 100 mL of the aqueous phase was added, extraction equilibrium was carried out for 30 min, and the temperature was 25° C.
Oil content test: the aqueous phase was separated out and added with H2SO4, and the [H^+] concentration of the aqueous phase solution was about 1 mol/L. The CH2Cl2 was used for extraction (30 mL×3), and the CH2Cl2 layer was collected, dried with 1 g anhydrous Na2SO4 to remove the water in CH2Cl2, and filtered; the filtrate was subjected to rotary evaporation, and then the residue was dried with an oil pump for 30 min. The oil content which CH2Cl2 extracted out in the system was obtained by weighing the flask before and after the rotary evaporation.
This comparative example differs from Performance Example 6 in that Compound BC195 was replaced by Extractant CA12 (commercially available, with an acid content of 98%).

In the case of `CCCCCCC(OCC(CC)CCCC)C(=O)O` (stereo not shown) [Compound BC195], the “Equilibrium pH” value is reported as 7.2 and 7.23.
